Laboratory results: patent US10011597B2 (APOGLYX AB, priority 2014, dated 2018)

Target: T1, human aquaporin 9 (Homo sapiens, UniProt O43315)
T1 construct: expressed in transfected cells; host or cells: Human AQP9 cell line with tetracycline added to the medium
T1 sequence (O43315 1-295): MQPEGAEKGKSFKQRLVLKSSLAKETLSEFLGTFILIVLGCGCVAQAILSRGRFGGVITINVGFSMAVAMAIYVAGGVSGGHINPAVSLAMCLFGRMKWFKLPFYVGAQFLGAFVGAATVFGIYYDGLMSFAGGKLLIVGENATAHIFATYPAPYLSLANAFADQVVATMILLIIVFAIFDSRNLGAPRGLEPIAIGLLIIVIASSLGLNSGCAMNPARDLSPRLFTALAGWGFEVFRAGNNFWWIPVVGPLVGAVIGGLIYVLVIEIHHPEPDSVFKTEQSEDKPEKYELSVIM
Assay: Calcein quenching fluostar assay
Type: cell-based
Settings: inhibition of human aquaporin 9; Human AQP9 cell line, tetracyclin-induced; 25° C.
Description: Calcein Quenching Fluostar Assay
A calcein quenching fluostar assay was performed in order to investigate the biological activity of the newly synthesized examples 1 to 57. This type of assay is disclosed in J. Biol. Chem., 2011, 286, 44319-44325 and Am. J. Physiol. Renal Physiol. (2010), 298, F224-230.
1) Two days prior to commencement of the assay, seed 10,000 cells/well of 96 well black clear bottom plate (Greiner Poly-lysin plate). A 1:1 mix of Dulbecco's Modified Eagle's Medium:Nutrient Mixture F-12 (DMEM: F12) was obtained from Gibco. Tetracycline stock of 5 mg/ml in 96% ethanol is used. Medium:DMEM/F12/10% Donor Bovine Serum, Human AQP9 cell line+1:270,000 tetracyclin, mouse AQP9 cell line+1:2,700,000 tetracycline.
2) Day of assay: Flick/slam off the medium and add 50 μl/well of loading solution: 5 ml DMEM/F12/10% Donor Bovine Serum, 25 μl Calcein AM—from freshly dissolved aliquot in 50 μl DMSO (VWR #734-1434), and 100 μl Probenecid.
3) Incubate the well for 90 minutes at 37° C.
4) Perform one wash with 75 μl wash buffer.
5) Add 75 μl of an example compound prepared in wash buffer per well.
Example compounds are prepared in 500 μl U bottom PP plates (NUNC). […] Substance in DMSO are added to row A; 180 μl of wash buffer+1% DMSO are added to rows B-H. 90 μl from row A are transferred and mixed with all other wells (up to row G) to make a 3-fold dilution series.
6) Assay in FLUOstar Optima at 25° C. Settings buffer addition at 135 μl seconds, add 75 μl/well, record time course for 30 seconds, add sucrose buffer 3.6 seconds into recording.
7) Normalization to initial in Excel.
8) Fit to “exponential decay” function in GraphPad Prism 5.0, then arrange half live shrinking values according to wells and fit dose-response curves.

Row | Structure (SMILES) | IC50 [nM]
1 | CCn1c(SCC(=O)Nc2nnc(-c3ccc(OC)cc3)s2)nnc1-c1ccc(Cl)cc1 [Example 40, 2-{[5-(4-chlorophenyl)-4-ethyl-4H-1,2,4-triazol-3-yl]sulfanyl}-N-[5-(4-methoxyphenyl)-1,3,4-thiadiazol-2-yl]acetamide] | 810
2 | COc1ccc(-c2nnc(NC(=O)CSc3nnc(-c4ccc(F)cc4)n3C)s2)cc1 [Example 6, 2-{[5-(4-Fluorophenyl)-4-methyl-4H-1,2,4-triazole-3-yl]sulfanyl}-N-[5-(4-methoxyphenyl)-1,3,4-thiadizole-2-yl]-acetamide] | 253
3 | Cn1c(SCC(=O)Nc2nnc(-c3ccccc3F)s2)nnc1-c1ccncc1 [Example 2, N-[5-(2-fluorophenyl)-1,3,4-thiadiazol-2-yl]-2-{[4-methyl-5-(pyridin-4-yl)-4H-1,2,4-triazol-3-yl]sulfanyl}acetamide] | 193
4 | CCn1c(SCC(=O)Nc2nnc(-c3ccc(F)cc3)s2)nnc1-c1ccc(OC)cc1 [Example 26, 2-{[4-Ethyl-5-(4-methoxyphenyl)-4H-1,2,4-triazol-3-yl]sulfanyl}-N-[5-(4-fluorophenyl)-1,3,4-thiadiazol-2-yl]acetamide] | 477
5 | Cn1c(SCC(=O)Nc2nnc(-c3ccccc3F)s2)nnc1-c1ccc(F)cc1 [Example 8, 2-{[5-(4-Fluorophenyl)-4-methyl-4H-1,2,4-triazole-3-yl]sulfanyl}-N-[5-(2-fluorophenyl)-1,3,4-thiadizole-2-yl]-acetamide] | 157
6 | CCn1c(SC(C)C(=O)Nc2nnc(-c3ccc(OC)cc3)s2)nnc1-c1ccc(F)cc1 (stereo not drawn) [Example 35, 2-{[4-Ethyl-5-(4-fluorophenyl)-4H-1,2,4-triazol-3-yl]sulfanyl}-N-[5(4-methoxyphenyl)-1,3,4-thiadiazol-2-yl]propanamide] | 301
7 | CCn1c(SCC(=O)Nc2nnc(-c3ccc(F)cc3)s2)nnc1-c1ccccn1 [Example 29, 2-{[4-Ethyl-5-(pyridin-2-yl)-4H-1,2,4-triazol-3-yl]sulfanyl}-N-[5-(4-fluorophenyl)-1,3,4-thiadiazol-2-yl]acetamide] | 427
8 | COc1ccc(-c2nnc(NC(=O)CSc3nnc(-c4ccccc4)n3CC(N)=O)s2)cc1 [Example 50, 2-{[4-(carbamoylmethyl)-5-phenyl-4H-1,2,4-triazol-3-yl]sulfanyl}-N-[5-(4methoxyphenyl)-1,3,4-thiadiazol-2-yl]acetamide] | 200
9 | CCn1c(SCC(=O)Nc2nnc(-c3ccc(S(C)(=O)=O)cc3)s2)nnc1-c1ccncc1 [Example 56, 2-{[4-ethyl-5-(pyridin-4-yl)-4H-1,2,4-triazol-3-yl]sulfanyl}-N-[5-(4-methanesulfonylphenyl)-1,3,4-thiadiazol-2-yl]acetamid] | 151
10 | CCn1c(SCC(=O)Nc2nnc(-c3ccc(F)cc3)s2)nnc1-c1ccc(C)cc1 [Example 24, 2-{[4-Ethyl-5-(4-methylphenyl)-4H-1,2,4-triazol-3-yl]sulfanyl}-N-[5-(4-fluorophenyl)-1,3,4-thiadiazol-2-yl]acetamide] | 427
11 | CCn1c(SCC(=O)Nc2nnc(-c3ccc(F)c(F)c3)s2)nnc1-c1ccc(F)cc1 [Example 46, N-[5-(3,4-difluorophenyl)-1,3,4-thiadiazol-2-yl]-2-{[4-ethyl-5-(4-fluorophenyl)-4H-1,2,4-triazol-3-yl]sulfanyl}acetamide] | 385
12 | CCn1c(SCC(=O)Nc2nnc(-c3ccc(OC)cc3)s2)nnc1-c1ccccn1 [Example 41, 2-{[4-ethyl-5-(pyridin-2-yl)-4H-1,2,4-triazol-3-yl]sulfanyl}-N-[5-(4-methoxyphenyl)-1,3,4-thiadiazol-2-yl]acetamide] | 260
13 | CCn1c(SCC(=O)Nc2nnc(-c3ccc(OC)cc3)s2)nnc1-c1ccccc1C [Example 13, 2-{[4-Ethyl-5-(2-methylphenyl)-4H-1,2,4-triazol-3-yl]sulfanyl}-N-[5-(4-methoxyphenyl)-1,3,4-thiadiazol-2-yl]acetamide] | 323
14 | CCn1c(SCC(=O)Nc2nnc(-c3ccc(OC)cc3)s2)nnc1-c1ccccc1F [Example 17, 2-{[4-Ethyl-5-(2-fluorophenyl)-4H-1,2,4-triazol-3-yl]sulfanyl}-N-[5-(4-methoxyphenyl)-1,3,4-thiadiazol-2-yl]acetamide] | 139
15 | O=C(CSc1nnc(-c2ccc(F)cc2)n1C1CC1)Nc1nnc(-c2ccc(F)cc2)s1 [Example 44, 2-{[4-cyclopropyl-5-(4-fluorophenyl)-4H-1,2,4-triazol-3-yl]sulfanyl}-N-[5-(4-fluorophenyl)-1,3,4-thiadiazol-2-yl]acetamide] | 168
16 | Cn1c(SCC(=O)Nc2nnc(-c3ccccc3F)s2)nnc1-c1ccc(Cl)cc1 [Example 7, 2-{[5-(4-Chlorophenyl)-4-methyl-4H-1,2,4-triazole-3-yl]sulfanyl}-N-[5-(2-fluorophenyl)-1,3,4-thiadizole-2-yl]-acetamide] | 260
17 | CCn1c(SCC(=O)Nc2nnc(-c3ccc(F)cc3)s2)nnc1-c1cccc(OC)c1 [Example 25, 2-{[4-Ethyl-5-(3-methoxyphenyl)-4H-1,2,4-triazol-3-yl]sulfanyl}-N-[5-(4-fluorohenyl)-1,3,4-thiadiazol-2-yl]acetamide] | 375
18 | CCn1c(SCC(=O)Nc2nnc(-c3ccc(OC)c(F)c3)s2)nnc1-c1ccc(F)cc1 [Example 45, 2-{[4-ethyl-5-(4-fluorophenyl)-4H-1,2,4-triazol-3-yl]sulfanyl}-N-[5-(3-fluoro-4-methoxyphenyl)-1,3,4-thiadiazol-2-yl]acetamide] | 182

Stronger by IC50, values ahead:

Row | IC50 [nM] | Structure (SMILES)
19 | 117 | COC(=O)CCn1c(SCC(=O)Nc2nnc(-c3ccc(OC)cc3)s2)nnc1-c1ccccc1 [Example 48, Methyl 3-{3-[({[5-(4-methoxyphenyl)-1,3,4-thiadiazol-2-yl]carbamoyl}methyl)sulfanyl]-5-phenyl-4H-1,2,4-triazol-4-yl}propanoate]
20 | 114 | CCn1c(SCC(=O)Nc2nnc(-c3ccc(C#N)cc3)s2)nnc1-c1ccc(F)cc1 [Example 47, N-[5-(4-cyanophenyl)-1,3,4-thiadiazol-2-yl]-2-{[4-ethyl-5-(4-fluorophenyl)-4H-1,2,4-triazol-3-yl]sulfanyl}acetamide]
21 | 112 | Cn1c(SCC(=O)Nc2nnc(-c3ccc(F)cc3)s2)nnc1-c1ccncc1 [Example 9, N-[5-(4-fluorophenyl)-1,3,4-thiadiazol-2-yl]-2-{[4-methyl-5-(pyridin-4-yl)-4H-1,2,4-triazol-3-yl]sulfanyl}acetamide]
22 | 99 | CCn1c(SCC(=O)Nc2nnc(-c3ccc(F)cc3)s2)nnc1-c1ccncc1 [Example 31, 2-{[4-Ethyl-5-(pyridin-4-yl)-4H-1,2,4-triazol-3-yl]sulfanyl}-N-[5-(4-fluorophenyl)-1,3,4-thiadiazol-2-yl]acetamide]
23 | 86 | COc1ccc(-c2nnc(NC(=O)CSc3nnc(-c4ccccc4)n3CCCO)s2)cc1 [Example 51, 2-{[4-(3-hydroxypropyl)-5-phenyl-4H-1,2,4-triazol-3-yl]sulfanyl}-N-[5-(4-methoxyphenyl)-1,3,4-thiadiazol-2-yl]acetamide]
24 | 82 | CCn1c(SCC(=O)Nc2nnc(-c3ccc(OCCOC)cc3)s2)nnc1-c1ccc(F)cc1 [Example 37, 2-{[4-ethyl-5-(4-fluorophenyl)-4H-1,2,4-triazol-3-yl]sulfanyl}-N-{5-[4-(2-methoxyethoxy)phenyl]-1,3,4-thiadiazol-2-yl}acetamide]
25 | 61 | CCn1c(SCC(=O)Nc2nnc(-c3ccc(O)cc3)s2)nnc1-c1ccc(F)cc1 [Example 34, 2-{[4-Ethyl-5-(4-fluorophenyl)-4H-1,2,4-triazol-3-yl]sulfanyl}-N-[5(4-hydroxyphenyl)-1,3,4-thiadiazol-2-yl]acetamide]
26 | 59 | COc1ccc(-c2nnc(NC(=O)CSc3nnc(-c4ccccc4)n3CCO)s2)cc1 [Example 52, 2-{[4-(3-hydroxyethyl)-5-phenyl-4H-1,2,4-triazol-3-yl]sulfanyl}-N-[5-(4-methoxyphenyl)-1,3,4-thiadiazol-2-yl]acetamide]
27 | 56 | CCn1c(SCC(=O)Nc2nnc(-c3ccc(F)cc3)s2)nnc1-c1ccc(F)cc1 [Example 12, 2-{[4-Ethyl-5-(4-fluorophenyl)-4H-1,2,4-triazol-3-yl]sulfanyl}-N-[5-(4-fluorophenyl)-1,3,4-thiadiazol-2-yl]acetamide]
